Test results from patent US20170304288A1, “Formulations of Methionine Aminopeptidase Inhibitors for Treating Infectious Diseases” (Texas Southern University, priority 2013, published 2017).
In brackets after ≈: the same amount, converted by molar mass. Like-named read-outs stand apart in the source and are kept apart here. Marks after values point to notes of the source that are not given here.

What was measured:
[1] = test system: E. faecalis V583; test: Assay of E. faecalis inhibition (MIC) in BHI culture
[2] = test system: E. faecalis OG1RF; test: as above; settings: Enterococcus faecalis, read-out: Minimum Inhibitory Concentration MIC30 OG1RF
[3] = test system: E. faecalis OG1RF; test: Bacterial viability (CFU) in infected nematodes after treatment; type: in vivo, Enterococcus faecalis; settings: 4×10^−11 μg/mL, after three days of treatment
Description: Young Adult nematodes sequentially preinfected with E. faecalis for 5 h. The nematodes were washed three times with sterile […] and collected by centrifugation between each wash and then transferred into tubes. […] The nematodes were washed twice in 25 mM Tetramisole and transferred to 6 well plates containing 20% BHI and the inhibitors to recover for 48 h and 72 h. After recovery time elapsed, nematodes were then transferred into an eppendorf tube containing 200 μl of M9 and ground using motorized pestle for 1 min and tube was briefly vortexed.

[4] = test system: E. faecalis V583; test: Liquid-based C. elegans infection model, survival
[5] = Stability in plasma and urine samples for LC-MS/MS analysis; type: in vitro ADME, rat
Description: The short-term (bench-top) stability of compound 5 in plasma and urine samples was evaluated by analyzing three sets each of freshly prepared plasma and urine samples containing compound 5 and placed them on the bench-top for 2, 4, and 6 h, respectively or at −80° C. for 14 days. All the samples were compared with freshly prepared samples of the same concentration.
The stability of compound 5 in processed samples (on-instrument or auto-sampler stability) was also evaluated by comparing freshly prepared plasma and urine QC samples to similar samples placed on the auto-sampler for 2, 4, and 6 h respectively. One set of the plasma and urine QC samples was extracted with acetonitrile containing IS, and the other set with pure acetonitrile without IS.

[6] = test system: plasma protein; test: Plasma protein binding in rat plasma
[7] = Pharmacokinetic study in male Sprague Dawley rats; type: in vivo; settings: rat; for Cmax / clearance / bioavailability / half-life / Vd: male, Sprague Dawley, plasma; for bioavailability: read-out: Fabs (absolute bioavailability); for Vd: read-out: VD (volume of distribution)
Source text: Pharmacokinetic evaluation elucidates the fate of compound 5 in living systems. The pharmacokinetic study of compound 5 was also a means to verify the applicability of the LC-MS/MS assay method and the formulations. An adult male Sprague Dawley rat model was the preferred biological system for this experiment based on the similarity to humans in metabolism and minimal interference of hormones with metabolism. Briefly, male Sprague Dawley rats (n=4 for IV group, n=3 for subcutaneous and oral groups each, body weight: 300-350 g) were cannulated through the jugular vein under anesthesia (using a cocktail of ketamine: acepromazine: xylazine at a ratio of 50: 3.3: 3.3 mg/kg). On the following day, the optimal IV co-solvent formulation was diluted five times with normal saline to 1 mg/mL. The formulation for subcutaneous and oral administration was diluted with equal amount of normal saline to 3.75 mg/mL. Each rat was administered a 2 mg/kg IV bolus dose, 10 mg/kg subcutaneous dose or 20 mg/kg oral dose of compound 5. Heparinized blood samples were withdrawn from each rat at 5, 10, 15, 30 mins, 1, 2, 4, 6, 8, 12, 24, 48, 72, 96, 144 h after injection. The blood samples were centrifuged at 14,000 rpm for 6 min and the supernatant plasma obtained and stored at −80° C. until LC-MS/MS analysis for the concentration of compound 5. Urine samples were also collected at 0, 4, 8, 12, and 24 h. The plasma and urine samples were analyzed (within 7 days) using the developed LC/MS/MS method to determine the concentration of compound 5. FIG. 19A-D show plots of the plasma concentration of compound 5 against time.
The pharmacokinetic parameters for each rat were determined with Phoenix WinNonlin 6.3 software (Pharsight Corporation, Mountain View, Calif., USA) a non-compartmental analysis and a two compartment, which best described the fit for the IV bolus administration of compound 5, based on the observed and predicted fits of the plasma concentration versus time plot, the reduction in the sums of squares, and the Akaike's information criterion (AIC) for comparing compartmental models (5).
The weighting scheme of concentration^−2 (Y^−2) was used to determine the model that best fits the individual profiles. […] The plasma concentration -time profiling following 20 mg/Kg oral and 10 mg/kg subcutaneous doses of compound 5 is shown in FIG. 22C.

[8] = iv, 2 mg/kg, Intravenous (Dose: 2 mg/kg), non-compartmental analysis
[9] = iv, 2 mg/kg, Intravenous (Dose: 2 mg/kg), two compartment model
[10] = po, 20 mg/kg, Oral (Dose: 20 mg/kg), non-compartmental analysis
[11] = sc, 10 mg/kg, Subcutaneous (Dose: 10 mg/kg), non-compartmental analysis
[12] = Intravenous (Dose: 2 mg/kg), two compartment model
[13] = Oral (Dose: 20 mg/kg), non-compartmental analysis
[14] = Oral (Dose: 20 mg/kg), two compartment model
[15] = Subcutaneous (Dose: 10 mg/kg), non-compartmental analysis
[16] = Subcutaneous (Dose: 10 mg/kg), two compartment model

For Oc1c(Br)cc(Cl)c2cccnc12 [Compound 5, 7-bromo-5-chloroquinolin-8-ol], the “Minimum Inhibitory Concentration MIC30 V583” value [1] was 0.25 to 0.50 µg/mL, the MIC ([1]; Enterococcus faecalis, V583, read-out: Minimum Inhibitory Concentration MIC30 V583) was 0.25 to 0.5 µg/mL (≈ 0.967 to 1.93 µM) and the MIC [2] was 2.5 to 5 µg/mL (≈ 9.67 to 19.3 µM). For the same molecule, the “drop in CFU” value [3] was 50 fold, the “MPC (Minimum Protective Concentration) V583” value [4] was 4e-12 µg/mL and the “Processed sample or Auto-sampler stability No IS” value ([5]; Plasma, 2 hr) was 97.8 ± 1.11. The “Processed sample or Auto-sampler stability With IS” value ([5]; Plasma, 2 hr) was 95.9 ± 1.87, the “Short-term Stability” value ([5]; Plasma, 2 hr bench-top) was 91.6 ± 4.06 and the “Processed sample or Auto-sampler stability No IS” value ([5]; Plasma, 4 hr) was 97.1 ± 5.42. For the same molecule, the “Processed sample or Auto-sampler stability With IS” value ([5]; Plasma, 4 hr) was 94.7 ± 4.20, the “Short-term Stability” value ([5]; Plasma, 4 hr bench-top) was 95.1 ± 3.24 and the “Processed sample or Auto-sampler stability No IS” value ([5]; Plasma, 6 hr) was 95.5 ± 6.69. The “Processed sample or Auto-sampler stability With IS” value ([5]; Plasma, 6 hr) was 97.3 ± 5.55, the “Short-term Stability” value ([5]; Plasma, 6 hr bench-top) was 93.7 ± 1.17 and the “Short-term Stability” value ([5]; Plasma, 14 days at −80° C.) was 91.3 ± 5.45. For the same molecule, the “Processed sample or Auto-sampler stability No IS” value ([5]; Urine, 2 hr) was 92.3 ± 1.32, the “Processed sample or Auto-sampler stability With IS” value ([5]; Urine, 2 hr) was 102.1 ± 1.35 and the “Short-term Stability” value ([5]; Urine, 2 hr bench-top) was 94.4 ± 1.83. For the same molecule, the “Processed sample or Auto-sampler stability No IS” value ([5]; Urine, 4 hr) was 92.8 ± 2.31, the “Processed sample or Auto-sampler stability With IS” value ([5]; Urine, 4 hr) was 99.5 ± 1.89 and the “Short-term Stability” value ([5]; Urine, 4 hr bench-top) was 93.2 ± 4.10. The “Processed sample or Auto-sampler stability No IS” value ([5]; Urine, 6 hr) was 94.2 ± 1.59, the “Processed sample or Auto-sampler stability With IS” value ([5]; Urine, 6 hr) was 103.2 ± 2.33 and the “Short-term Stability” value ([5]; Urine, 6 hr bench-top) was 95.6 ± 1.44. The “Short-term Stability” value ([5]; Urine, 14 days at −80° C.) was 101.6 ± 4.29, the “Bound fraction (%) ± SD” value ([6]; Concentration 5 μg/mL) was 91.0 ± 0.6% and the “Bound fraction (%) ± SD” value ([6]; Concentration 25 μg/mL) was 96.3 ± 1.4%. The “Bound fraction (%) ± SD” value ([6]; Concentration 50 μg/mL) was 98.3 ± 0.3%, the Cmax [7, 8] was 2560 ± 480 ng/mL and the clearance ([7]; iv, 2 mg/kg, Intravenous (Dose: 2 mg/kg), non-compartmental analysis, read-out: Cl- (total body clearance) (converted)) was 1.67 mL/min/kg. It also gave a bioavailability [7, 8] of 100%, a half-life ([7]; iv, 2 mg/kg, Intravenous (Dose: 2 mg/kg), non-compartmental analysis, read-out: T1/2 (elimination half-life) (converted)) of 176 ± 30.5 h and a Vd [7, 8] of 24.6 ± 1.19 L/kg. For the same molecule, the Cmax [7, 9] was 2600 ± 560 ng/mL, the clearance ([7]; iv, 2 mg/kg, Intravenous (Dose: 2 mg/kg), two compartment model, read-out: Cl (total body clearance) (converted)) was 2.17 mL/min/kg and the half-life ([7]; iv, 2 mg/kg, Intravenous (Dose: 2 mg/kg), two compartment model, read-out: T1/2α (distribution half-life) (converted)) was 0.19 ± 0.02 h. It also gave a half-life ([7]; iv, 2 mg/kg, Intravenous (Dose: 2 mg/kg), two compartment model, read-out: T1/2β (elimination half-life) (converted)) of 109 ± 19.4 h, a Vd [7, 9] of 21.6 ± 1.32 L/kg and a Cmax [7, 10] of 1730 ± 380 ng/mL. It also gave a bioavailability [7, 10] of 4.6%, a half-life ([7]; po, 20 mg/kg, Oral (Dose: 20 mg/kg), non-compartmental analysis, read-out: T1/2 (elimination half-life) (converted)) of 8.21 h and a Cmax ([7]; po, 20 mg/kg, Oral (Dose: 20 mg/kg), two compartment model) of 1670 ± 600 ng/mL. The half-life ([7]; po, 20 mg/kg, Oral (Dose: 20 mg/kg), two compartment model, read-out: T1/2abs (absorption half-life) (converted)) was 0.14 ± 0.02 h, the half-life ([7]; po, 20 mg/kg, Oral (Dose: 20 mg/kg), two compartment model, read-out: T1/2α (distribution half-life) (converted)) was 0.33 ± 0.01 h and the half-life ([7]; po, 20 mg/kg, Oral (Dose: 20 mg/kg), two compartment model, read-out: T1/2β (elimination half-life) (converted)) was 7.05 ± 1.88 h. The Cmax [7, 11] was 910 ± 70 ng/mL, the bioavailability [7, 11] was 15.7% and the half-life ([7]; sc, 10 mg/kg, Subcutaneous (Dose: 10 mg/kg), non-compartmental analysis, read-out: T1/2 (elimination half-life) (converted)) was 36.8 ± 2.87 h. For the same molecule, the Cmax ([7]; sc, 10 mg/kg, Subcutaneous (Dose: 10 mg/kg), two compartment model) was 970 ± 50 ng/mL, the half-life ([7]; sc, 10 mg/kg, Subcutaneous (Dose: 10 mg/kg), two compartment model, read-out: T1/2abs (absorption half-life) (converted)) was 0.376 ± 0.01 h and the half-life ([7]; sc, 10 mg/kg, Subcutaneous (Dose: 10 mg/kg), two compartment model, read-out: T1/2α (distribution half-life) (converted)) was 1.66 ± 0.65 h. For the same molecule, the half-life ([7]; sc, 10 mg/kg, Subcutaneous (Dose: 10 mg/kg), two compartment model, read-out: T1/2β (elimination half-life) (converted)) was 51.5 ± 16.1 h, the “AUC0-∞” value ([7]; Intravenous (Dose: 2 mg/kg), non-compartmental analysis) was 10.3 ± 1 mg/L/h and the “A (coefficient of α-phase)” value [7, 12] was 2.51 ± 0.56 mg/L. The “AUC0-∞” value [7, 12] was 15.7 ± 1.96 mg/L/h, the “B (coefficient of β-phase)” value [7, 12] was 0.09 ± 0.01 mg/L and the “AUC0-∞” value [7, 13] was 4.73 ± 0.97^a mg/L/hr. For the same molecule, the “Cl- (total body clearance)” value [7, 13] was 4.72 ± 1.20 L/kg/h, the “VD (volume of distribution)” value [7, 13] was 63.9 ± 34.3 L/kg and the “Fabs (absolute bioavailability)” value ([7]; Oral (Dose: 20 mg/kg), non-compartmental analysis, 20 mg/kg) was 4.59 ± 1.33%. The “A (coefficient of α-phase)” value [7, 14] was 4.29 ± 0.42 mg/L, the “AUC0-∞” value [7, 14] was 4.27 ± 1.69 mg/L/h and the “B (coefficient of β-phase)” value [7, 14] was 0.37 ± 0.24 mg/L. The “Cl (total body clearance)” value [7, 14] was 92.3 ± 36.3 mL/min/kg, the “VD (volume of distribution)” value [7, 14] was 34.8 ± 21.8 L/kg and the “AUC0-∞” value [7, 15] was 8.14 ± 0.23^c mg/L/hr. The “Cl- (total body clearance)” value [7, 15] was 1.23 ± 0.04^c L/kg/hr, the “VD (volume of distribution)” value [7, 15] was 65.0 ± 3.77^c L/kg and the “A (coefficient of α-phase)” value [7, 16] was 2.05 ± 0.57 mg/L. The “AUC0-∞” value [7, 16] was 8.68 ± 0.92 mg/L/h, the “B (coefficient of β-phase)” value [7, 16] was 0.08 ± 0.02 mg/L and the “Cl (total body clearance)” value [7, 16] was 19.5 ± 2 mL/min/kg. The “VD (volume of distribution)” value [7, 16] was 45.8 ± 5.95 L/kg.
